Data set [1] can be described thus: Cytotoxicity against african green monkey CV1 cells. Conditions: chlorocebus aethiops, cv-1. It is filed as cell-based.
Another data set deals with P388. Put plainly: Cytotoxicity against mouse P388 cells at 1 ug/ml. It is filed as functional, cell-based.

Active and inactive are the calls of the source. No cut-off for these calls is given here.

Turning to `C[C@H]1CCC=C2CCC(C(C)(O)CO)=C[C@@]21C` (some centres not stated), the Activity in data set [1] was 10 µg/mL. In addition, the result with P388 was Active.
